The target in data set [1] is PDZ1-2 of PSD95 (Homo sapiens, UniProt P78352). Put plainly: Fluorescence polarization competition binding assay of PDZ1-2 with probe 5-FAM-NA-1. Background: Fluorescence polarisation rises when a labelled molecule tumbles more slowly, as on binding a larger partner.
A short description of data set [2]: Toxicological experiment: serum UREA and CREA after 5 days of i.v. dosing. Type of data set: in vivo, SD rats. The settings on record: male SD rats, 30 mg/kg i.v. once daily for 5 days, serum 2 h after dosing on day 5. How it is done:
The compounds of Examples 1-8 were accurately weighed into suitable EP tubes, and the vehicle (saline) was added to formulate a solution of a concentration of 15 mg/mL. The solution was filtered using a 0.2 μm filter for future use.
A total of 18 male SD rats of 6-7 weeks of age were used for test. After the animal quarantine and acclimatization period, the animals were randomly divided into 6 groups according to their body weights measured before grouping, vehicle control group (saline) as well as example compounds groups, 3 animals/group. Using the above prepared solution, the animal was administered intravenously via the tail vein at a dosage of 30 mg/kg and a dosing volume of 2 mL/kg. The dosing volume for each animal was calculated according to the body weight. Administration was performed once daily for 5 consecutive days. After 2 h of administration on day 5, the animals were deeply anesthetized by intraperitoneal injection of sodium pentobarbital. The thoracic cavity was opened, and blood was collected from the abdominal aorta into blood collection tubes containing inert separation gel and coagulant. The serum was collected by centrifugation (4000 rpm, 10 min) after about 1 h of resting. The concentrations of UREA and CREA in the serum were detected using a biochemical analyzer. The percentage change of each example compound relative to the vehicle control group was calculated using the formula: %=(Concentration of example compound−Concentration of vehicle control group)/Concentration of vehicle control group.

Data set [3] can be described thus: Tissue distribution experiment of TAMRA-labeled compounds. The settings on record: TAMRA-labeled compound, male Balb/c mice, 3 nmol/g tail vein injection, 45 min circulation, after perfusion. Type of data set: in vivo. How it is done: The TAMRA-labeled example compounds were dissolved in saline to prepare a solution with a concentration of 600 μM/mL. A 100 μL of the above prepared solution was administered, at a dose of 3 nmol/g, to 6-week-old male Balb/c mice (18-22 g) via tail vein injection. After 45 min of circulation, the animals were deeply anesthetized by intraperitoneal injection of sodium pentobarbital. The thoracic cavity was opened, and the mice were subjected to cardiac perfusion using 0.01 M PBS (pH 7.4), and the brains, kidneys, and livers were collected at the end of perfusion. The harvested tissues were immediately placed on ice and stored at −80° C. […] The supernatant was transferred to a black 96-well plate with a clear bottom, and the TAMRA-peptide was quantified using a PHERAstar FSX plate reader (BMG LABTECH, Ortenberg, Germany). The excitation/emission wavelengths were set at 540/580 nm. The corresponding peptide concentration in the tissues was calculated using a standard curve (blank tissue mixed with TAMRA-peptide, concentration range of 0-1000 nM).

A short description of data set [4]: in vitro. The following applies: human, plasma.
Procedure: (§1) • Plasma: Human plasma is commercially available. • Reagents: DMSO (dimethyl sulfoxide), disodium hydrogen phosphate, sodium dihydrogen phosphate, methanol, formic acid, and propranolol (internal standard) are commercially available. • Instrument: AB SCIEX QTRAP 5500+.
(§2) 5 μL of stock solution (10 mM) was diluted with 495 μL of 0.05 M sodium phosphate buffer to 100 μM of dosing solution. The final concentration of tested drug for incubation was 10 μM.
(§3) A certain volume (e.g., 27 μL or 24 μL) of plasma was added into a 96-well plate. An appropriate volume of the internal standard working solution (e.g., 150 μL) was immediately added to precipitate. […] This was performed in duplicate.
(§4) Then, an appropriate amount of plasma (e.g., 27 μL or 24 μL) was added at the designed time points (e.g., 5 min, 15 min, 30 min, 60 min, and 120 min, etc.), and the parallel replicate wells were performed at each time point. […] The reaction was terminated by adding an appropriate amount of internal standard working solution (e.g., 150 μL) at the end of the time, and the mixture was mixed thoroughly.
(§5) The mixture was centrifuged at 4000 rpm for 15 min. A certain amount of the supernatant was taken, mixed with a certain amount of water, and then subjected to LC/MS/MS analysis. LC-MS detection conditions were as follows: • Chromatography column: YMC Triart C18, 50*3.0 mm, 2.1 μm. • Mobile phase: Gradient elution was performed using water (0.1% formic acid)-acetonitrile according to the table below.
(§6) The relative content of drug at each time point was calculated using the initial 0 point as 100%. The half-life of the drug was calculated by plotting “relative drug content” against “incubation time” using GraphPad Prism 5 software.
The nature of data set [5]: In vitro plasma stability experiment (compounds), without or with tPA. The following applies: human, With tPA T1/2, human plasma, 37° C., initial concentration 10 μM, with rt-PA […].
Procedure: as §1, §2, §3, §4, §5, §6

Square brackets hold non-standard residues; d marks the D form. Ends that are not written are not given here. Peptide text beside a SMILES is read from it.

Sequence of PDZ1-2 of PSD95 (P78352 61-249 limits assumed): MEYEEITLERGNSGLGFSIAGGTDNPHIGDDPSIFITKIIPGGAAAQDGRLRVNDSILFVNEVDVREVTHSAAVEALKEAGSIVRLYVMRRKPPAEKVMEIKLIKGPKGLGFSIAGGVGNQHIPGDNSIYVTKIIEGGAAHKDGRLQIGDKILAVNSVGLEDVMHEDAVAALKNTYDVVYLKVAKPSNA

Take `CC[C@H](C)[C@H](NC(=O)[C@H](CO)NC(=O)[C@H](CO)NC(=O)[C@H](CC(C)C)NC(=O)[C@@H](CCCCN)NC(=O)[C@H](CCCNC(=N)N)NC(=O)[C@@H](CCCNC(=N)N)NC(=O)[C@H](CCC(N)=O)NC(=O)[C@@H](CCCNC(=N)N)NC(=O)[C@H](CCCNC(=N)N)NC(=O)[C@H](CCCCN)NC(=O)[C@H](CCCCN)NC(=O)[C@@H](CCCNC(=N)N)NC(=O)CNC(=O)[C@@H](N)Cc1ccc(O)cc1)C(=O)N[C@@H](CCC(=O)O)C(=O)N[C@@H](CO)C(=O)N[C@@H](CC(=O)O)C(=O)N[C@H](C(=O)O)C(C)C` [Compound 1] (H-YG[dR]KKR[dR]Q[dR]R[dK]LSSIESDV-OH; N-terminus and C-terminus assumed): in data set [1], the IC50 (usually the point on the concentration scale where inhibition reaches its midpoint) was 14.9 µM. Also, in data set [2], the “CREA, percentage change compared to vehicle control group” value came to 216.9% and the “UREA, percentage change compared to vehicle control group” value is reported as 206.9%. In addition, the “Mean tissue concentration, Brain” value in data set [3] came out at 5.9220 nmol/g.

`CC[C@H](C)[C@H](NC(=O)[C@H](CO)NC(=O)[C@H](CO)NC(=O)[C@H](CC(C)C)NC(=O)[C@@H](CCCCN)NC(=O)[C@H](CCCNC(=N)N)NC(=O)[C@H](CCCNC(=N)N)NC(=O)[C@@H](CCCNC(=N)N)NC(=O)[C@H](CCC(=O)O)NC(=O)[C@@H](CCCNC(=N)N)NC(=O)[C@H](CCCNC(=N)N)NC(=O)[C@H](CCCCN)NC(=O)[C@H](CCCCN)NC(=O)[C@@H](CCCNC(=N)N)NC(=O)CNC(=O)[C@@H](N)Cc1ccc(O)cc1)C(=O)N[C@@H](CCC(=O)O)C(=O)N[C@@H](CO)C(=O)N[C@@H](CC(=O)O)C(=O)N[C@H](C(=O)O)C(C)C` [Compound 15] (H-YG[dR]KKR[dR]E[dR]RR[dK]LSSIESDV-OH): the 50% inhibitory concentration (IC50) in data set [1] is 11.3 µM. In data set [2], the “CREA, percentage change compared to vehicle control group” value was found to be 90.8% and the “UREA, percentage change compared to vehicle control group” value was 88.6%. Moreover, the “Mean tissue concentration, Brain” value in data set [3] was 4.4515 nmol/g. The half-life (in general, the time needed for the level to fall by half in the phase considered) in data set [4] (With tPA T1/2) is over 2000 min. Besides, the half-life in data set [4] (Without tPA T1/2) is over 2000 min.

As for “YGRKKRRQRRRKLSSIESDV [NA-1, reference compound]”, the “Mean tissue concentration, Brain” value in data set [3] was 2.9115 nmol/g. Besides, in data set [5], the half-life at 10 μM was determined as 3.61 min.
